# Assay: Human HepG2 cell viability assay in 384 well format
# Type: toxicity, cell-based
# Parameters: dose 125 nL, time 70.5 hour; concentration not given beside the values
# Details: HepG2 cells, read-out: Inhibition
row,SMILES,cytotoxicity at 70.5 h [%]
1,COc1ccc(S(=O)(=O)N2CCOC(Cn3ccnc3)C2)cc1 (stereo not drawn),-8.46
2,CC(=O)c1ccc(S(=O)(=O)N2CCOC(Cn3ccnc3)C2)cc1 (stereo not drawn),-7.46
3,O=C(Nc1cccc(Cl)c1)c1nn(C2CCS(=O)(=O)C2)c2c1CCCC2 (stereo not drawn),13.9
4,COc1cccc(C2CC(=O)Nc3nc(N)sc32)c1OC (stereo not drawn),12.4
5,O=C(c1cc(-n2cccc2)ccc1Cl)N1CCC2(CC1)OCCO2,2.22
6,Cn1ncc2c1NC(=O)CC2c1ccccc1Cl (stereo not drawn),-5.68
7,CN(C(=O)Cn1nc(-c2ccc(F)cc2)ccc1=O)C1CCS(=O)(=O)C1 (stereo not drawn),-0.171
8,CCOC(=O)N1CCN(C(=O)CCn2ccc3c(OC)cccc32)CC1,-9.78
9,CN1CCN(c2nc(O)c3c(-c4ccccn4)ccnc3n2)CC1,-3.01
10,O=C(COc1coc(CN2CCOCC2)cc1=O)c1ccc(Cl)cc1,-9.03
11,CC(C)CN1C[C@@H]2CN(C(=O)[C@H]3CCCO3)C[C@@H]2C1=O,-14.1
12,CCCC(=O)N1CCC2(CC1)CC(NC(C)=O)c1ccccc1O2 (stereo not drawn),-13.7
13,COCCN1C(=O)CCC12CCN(C(=O)NC(C)C)CC2,-25.3
14,Cc1ccc(C(=O)N2CCCC3(CCCC(=O)N3C)C2)cc1F (stereo not drawn),-4.57
15,CC(=O)N1CCN(c2ccc3ccc(C(=O)NC4CCCC4)cn23)CC1,-14.6
16,O=C(c1ccco1)N1CCC2(CCC(=O)N2Cc2cccc(F)c2)CC1,-15.7
17,COCCN1CC[C@]2(CN(C(=O)c3cccs3)C[C@H]2C)C1=O,-10.6
18,Cc1occc1C(=O)N1CCC2(CCC(C(=O)NCC3CC3)O2)CC1 (stereo not drawn),-12.7
19,COCCO[C@H]1CCN(C(=O)c2cc(C)on2)[C@H]1Cc1ccccc1,0.559
20,CC[C@H]1NCCC[C@]12CCC(=O)N2Cc1ccncc1,-0.708
21,O=C(c1ccnnc1)N1CCC2(CC1)CC(N1CCOCC1)C2,33.7
22,O=C(C1CC1)N1CC[C@H](O)[C@@H]1Cc1ccccc1,-3.79

row,SMILES,cytotoxicity at 70.5 h [%]
1,CC(C)C(=O)N1CCC2(CCCN(CCOc3ccccc3)C2)C1 (stereo not drawn),-8.26
2,c1ccc(N2CCCC3(CCN(Cc4nccs4)C3)C2)nc1 (stereo not drawn),6.32
3,CN(C)C(=O)CC1CC2(CCN(C(=O)N(C)C)CC2)Oc2ccccc21 (stereo not drawn),-11.4
4,CNC(=O)[C@@]12CCC3(CCN(C(C)=O)CC3)[C@@H]1CN(S(C)(=O)=O)C2,-4.49
5,CNC(=O)c1cc2c(nc1NCC(C)C)CCN(S(=O)(=O)C1CC1)CC2,-6.3
6,COCC1c2nnn(CC3CC3)c2CCN1C(=O)c1cccc(F)c1 (stereo not drawn),-6.77
7,CCOCC1CN(S(C)(=O)=O)Cc2ncn(CC3CC3)c21 (stereo not drawn),3.76
8,CCS(=O)(=O)N1CC[C@]2(C[C@@H](OCC3CC3)CO2)C1,-8.16
9,O=C(NCc1cnc2n1CCN(CC1CC1)CC2)C1CCC1,-8.49
10,CCc1ccccc1NC(=O)N1CCn2cnc(COC)c2C1,-7.61
11,CCc1noc(CCC(=O)N2CCC(c3ccn[nH]3)C2)n1 (stereo not drawn),17.8
12,Cc1nc(CN2CCCC(c3nccs3)C2)cs1 (stereo not drawn),-0.693
13,CNc1cccc(CC2COCCN(C(=O)c3cnn(C)c3)C2)n1 (stereo not drawn),-0.46
14,CC(=O)N1CCC1c1cc(NC2CCOCC2)nc(C)n1 (stereo not drawn),-0.759
15,c1cncc(CN2CCC(c3ccnc4nccn34)C2)c1 (stereo not drawn),-1.1
16,CC(C)(C)c1cc(C(=O)N2CCOC(c3cnccn3)C2)[nH]n1 (stereo not drawn),0.63
17,CC(=O)N1CCC(C)(c2cc(C(=O)NCC3CC3)nc(C)n2)CC1,-1.84
18,CCCNC(=O)C1(Cc2cc(-c3ccccc3)no2)CCN(C(C)=O)C1 (stereo not drawn),3.68
19,CC(=O)NC1CCc2ccc(S(=O)(=O)NCc3ncccc3C)cc21 (stereo not drawn),39.1
20,Cc1nc(Nc2nccs2)cc(C2CN(C(C)C)C2)n1,-5.94
21,Cc1nnc(N2CCOC(C)(C(=O)N(C)C)C2)c2ccccc12 (stereo not drawn),-8.96
22,O=C(O)[C@H]1OCC(=O)N(Cc2cccc(Cl)c2)[C@@H]1c1ccccc1,-6.12

row,SMILES,cytotoxicity at 70.5 h [%]
1,Cc1cc(C)n(-c2nc(C(=O)NCCN3CCC(C)CC3)cs2)n1,-5.84
2,O=C(NCC1CCCO1)c1cc(-c2cccnc2)c2cnccc2n1 (stereo not drawn),-3.09
3,O=C(O)[C@H]1OCC(=O)N(Cc2cccc(F)c2)[C@@H]1c1ccc(Cl)cc1,-9.16
4,CS(=O)(=O)N1CC(c2ccnc(Nc3ccccn3)n2)C1,-3.95
5,NC(=O)C1CN(C(=O)c2ccc(F)cc2)CCN1CCc1ccccc1 (stereo not drawn),-4.6
6,CCc1nc(C)cc(N2CCN(C(=O)[C@@H]3C[C@@H]4C=C[C@H]3C4)CC2)n1,-7.28
7,Cn1ccnc1-c1nc(NC2CCCC2)ncc1-c1cccc(F)c1,0.205
8,CNC(=O)C1CN(c2ncccn2)CCN1Cc1ccccc1 (stereo not drawn),-3.64
9,CNC(=O)C1CN(C)CCN1c1nc(C)cc(C)n1 (stereo not drawn),14.1
10,CN(C)c1nccc(C2CCCCN2Cc2cnn3cccnc23)n1 (stereo not drawn),-7.45
11,O=c1[nH]cc(N2CCOCC2)c(=O)[nH]1,-0.0513
12,Cc1nc(N2CCOCC2)sc1C(=O)NCC(C)(C)N1CCCCC1,-2
13,CCN(CC)C1CCN(C(=O)c2cc(-n3cccn3)ccc2Cl)CC1,-0.746
14,CC(C)(C)C(=O)N1CCCc2c(cnn2-c2ccccc2)C1,1.62
15,O=S(=O)(c1ccccc1)N1CCOC(Cn2ccnc2)C1 (stereo not drawn),-6.05
16,OC1(CN2CCC(Cc3ncccn3)CC2)CCCCC1,-5.56
17,CC(C)N1CCN(C)CC(Cc2cc(N(C)C)ncn2)C1 (stereo not drawn),-3.36
18,Cn1nc(C2CCN(C(=O)c3cnccn3)C2)cc1CCO (stereo not drawn),-2.35
19,Cc1c[nH]nc1C1CCCN1Cc1ccncc1 (stereo not drawn),-4.73
20,O=C1CC2(CCCNC2)C(=O)N1Cc1ccccc1 (stereo not drawn),18.9
21,COc1cccc(CN2CCCCC2c2n[nH]cc2-c2cc(C)no2)c1 (stereo not drawn),-3.89
22,Cc1cc(-c2nccs2)nc(C2CCN(Cc3ccc(F)cc3)CC2)n1,-2

row,SMILES,cytotoxicity at 70.5 h [%]
1,CCn1cc(-c2cncn2CCc2ccc3c(c2)OCCO3)cn1,19.5
2,Cn1cc(CN(Cc2ccccc2)Cc2ccccn2)cn1,18
3,CN1CCc2c(C#N)c(NCCCN3CCOCC3)n3cnnc3c2C1,-14.3
4,NC[C@H]1[C@H]2CN(Cc3ccccc3)C[C@@H]12,0.818
5,c1cnc(N2Cc3nccn3CC(COc3cccnc3)C2)nc1 (stereo not drawn),-8.37
6,CN1C(=O)C(c2ccccc2)CC12CCN(CCO)CC2 (stereo not drawn),-14.6
7,CN(C)C[C@@H]1C[C@@H]2CN(C(=O)c3ccoc3)CC[C@@H]2N1CC1CC1,24
8,O=C1C[C@H]2[C@H](CCN2Cc2ccccn2)N1CC1CC1,-15.8
9,O=C(c1ccc(F)cc1)N1CCC2(CCCN2CC2CC2)CC1,-14
10,CC(C)NC(=O)CC1COC2(CCN(Cc3cccs3)CC2)C1 (stereo not drawn),-20.6
11,CO[C@@H]1CCN(C(=O)c2ccccn2)[C@H]1Cc1ccccc1,-16.2
12,Cc1cccc(CN2CCc3nnc(CN4CCCC4=O)n3CC2)n1,-16.9
13,COCCC(=O)N1C[C@H]2CN(Cc3cccc(C)n3)C(=O)[C@H]2C1,-11.1
14,COc1ccc(CN2CCC3(CC2)CCN(CC(C)C)C3=O)cc1,-10.6
15,O=C(N1CCCC1)N1CCC2(CCCN(CCOc3ccccc3)C2)C1 (stereo not drawn),26.5
16,O=C(CC1CCCC1)N1C[C@@H]2CCN(c3cccnc3)C[C@@H]2C1,-7.38
17,c1cnc(N2CCC3(CC2)CN(CC2CC2)c2ccccc23)nc1,12.1
18,O=C1COC2(CCN(C(=O)c3ccco3)CC2)CN1Cc1cccnc1,-8.01
19,Cc1noc(C)c1CN1CCCC2(CCN(C(=O)NC3CC3)C2)C1 (stereo not drawn),1.02
20,CN(C)C(=O)CN1C(=O)CCC12CCN(Cc1cccn1C)CC2,0.746
21,C[C@@H]1C(=O)NC[C@H]2CN(Cc3ccsc3)C[C@H]21,-2.8
22,C[C@@H]1C(=O)NC[C@H]2CN(CCc3ccccc3)C[C@H]21,-0.303

row,SMILES,cytotoxicity at 70.5 h [%]
1,O=C1COC2(CCN(C(=O)c3ccco3)CC2)CN1Cc1ccccn1,-1.65
2,O=C(CC1CC1)N1C[C@@H]2CCN(c3cnccn3)C[C@@H]2C1,4.03
3,CN1CC2(CCN(Cc3ccoc3)CC2)COc2ccccc2S1(=O)=O,-12.1
4,CNC(=O)c1ccc2c(c1)C1(CCN(CC(C)C)CC1)C(=O)N2,-10.5
5,CC(C)CN1CCC2(CC1)C(=O)Nc1ccc(C(=O)N(C)C)cc12,-10.1
6,Cc1noc(C)c1CN1C[C@H](OCC2CC2)[C@H]2OCCC[C@H]21,-9.93
7,O=C([C@@H]1CC[C@@H]2[C@@H](CCN2Cc2ccoc2)O1)N1CCCC1,-11.4
8,CC(C)c1ccc(CN2CCC3(CCCN(c4nncs4)C3)C2)cc1 (stereo not drawn),-4.12
9,Cn1cc(N2C(=O)CC[C@@H]3[C@H]2CCN3Cc2cccc(C#N)c2)cn1,-13.2
10,O=C1CC[C@H]2[C@H](CCN2Cc2ccccn2)N1CC1CCOCC1,-6.68
11,CN1[C@H](CN2CCCC2)C[C@@H]2CN(C(=O)Cc3cccs3)CC[C@@H]21,27.9
12,CC(=O)N1CCN(Cc2ccccn2)CC2(CC(=O)N(C)C2)C1 (stereo not drawn),0.971
13,CNC(=O)[C@@H]1C[C@H]2CN(Cc3nccs3)C[C@H]2N1C,6.13
14,CN(C)CCOCC1CN(CC2CCOCC2)Cc2nnn(C)c21 (stereo not drawn),-6.51
15,COCCN1CCc2cc(C(=O)N(C)C)c(NC(C)C)nc2CC1,-8.98
16,Fc1cccnc1OC[C@@]12CCO[C@@H]1CCN(CC1CCOCC1)C2,-9.65
17,COCCO[C@H]1CCN(Cc2cccs2)[C@H]1Cc1cccnc1,-8.35
18,Cc1nc(CN2CCC3(CCCN(Cc4ccncc4)C3)C2=O)cs1 (stereo not drawn),-11.1
19,Cc1cccc(CN2CC[C@H]3[C@H]2CCN3Cc2cnn(C)c2)n1,30.5
20,CN(C)CCN1CCO[C@H]2CN(Cc3cnn(C)c3)C[C@H]21,-7.82
